Tests used:
[1] = test system: bovine aortic endothelial BAE-2 cells; experiment: Intracellular ascorbic acid cumulative amount in BAE-2 cells (Example 2); format: cell-based; settings: 5 μM in culturing medium, cultured 20 hours
Protocol: About 6×10^5 bovine aortic endothelial BAE-2 cells (available from Hiroshima Prefecture University) were sowed on a 60 mmφ plate and cultured in a minimum essential culturing medium containing 20% dialyzed bovine fetus serum (available from Moregate) for 2 hours. After displacing with the same culturing medium containing 5 μM (in the case of magnesium ascorbic acid-2-phosphate, 50 μM) of ascorbic acid or a derivative thereof, the cells were further cultured for 20 hours.

[2] = test system: spontaneous breast cancer rat cells (SST-2); experiment: Lung metastasis of implanted SST-2 cells in SHR rats (Example 3); format: in vivo; settings: 35 days after implantation; for Number of Metastasis Colonies (average), Peroral Administration: 1 mg/rat perorally from day of implantation to day 34; for Number of Metastasis Colonies (average), Subcutaneous Injection: 1 mg/rat subcutaneous injection from day of implantation to day 34
Protocol: 1×100,000 spontaneous breast cancer rat cells (SST-2) were subcutaneously implanted into the back of a rat (SHR rat) (5 rats per group) suffering from spontaneous hypertension. After 35 days, the rats were sacrificed, and the lung weight and the number of colonies formed were measured to examine the degree of metastasis of SST-2 to the lung. The compounds shown in Tables 3 and 4 each was administered perorally or through subcutaneous injection in a dose of 1 mg/rat over the period from the day of implantation to 34 days after implantation. The number of colonies formed was compared with that in the control group not subjected to any treatment, to examine metastasis to the lung.

[3] = test system: normal human adult mamma epidermis keratinocyte; experiment: Intracellular ascorbic acid cumulative amount in keratinocytes (Example 1); format: cell-based; settings: addition amount 2 μM, cultured 20 hours; difference to culture without addition
Protocol: About 6×10^5 cells of a normal human adult mamma epidermis keratinocyte (available from Kurashiki Boseki KK) were sowed on a 60 mm plate and cultured in a culturing medium (manufactured by Krashiki Boseki KK) for the increase of serum-free epidermis keratinocyte for 2 hours. After displacing with the same culturing medium having added thereto from 2 to 50 μM of ascorbic acid or a derivative thereof, the cells were further cultured for 20 hours. The cells were collected by trypsin treatment and the number of cells was counted using a Coulter Counter Model DN (trade name, manufactured by Coulter Electronics). The cells thus collected were washed with Hank's equilibrium salt solution, pulverized in an ultrasonic homgenizer, filtered through a Mol-cut II (UFP1LCC) (trade name, produced by Nippon Milipore KK), analyzed by HPLC using Shodex ODSpak F411A column (trade name, produced by Showa Denko KK), and the amount of ascorbic acid and derivatives thereof were measured to determine the intracellular cumulative amount.
As a control, culturing was performed in the same manner as above except for not adding ascorbic acid or a derivative thereof, and the amount of intracellular ascorbic acid was quantitatively determined.

Row | Compound | Intracellular Cumulative Amount [1] | Intracellular Cumulative Amount [3] | Number of Metastasis Colonies (average), Peroral Administration [2] | Number of Metastasis Colonies (average), Subcutaneous Injection [2]
1 | CCCCC/C=C\C/C=C\C/C=C\C/C=C\CCCC(=O)OC[C@H](O)[C@H]1OC(=O)C(OP(=O)(O)O)=C1O [L-Ascorbic acid 2-phosphate-6-arachidonate] | 0.0068 Pmole/cell |  | 31.4 | 1.2
2 | O=C1O[C@H]([C@@H](O)COC(=O)c2ccccc2)C(O)=C1OP(=O)(O)O [L-Ascorbic acid 2-phosphate-6-benzoate] | 0.0025 Pmole/cell |  | 80.0 | 64.4
3 | CCCCCCCCCCCC(=O)OC[C@H](O)[C@H]1OC(=O)C(OP(=O)(O)O)=C1O [L-Ascorbic acid 2-phosphate-6-laurate] | 0.0042 Pmole/cell |  | 48.0 | 26.8
4 | CCCCCCCC/C=C\CCCCCCCC(=O)OC[C@H](O)[C@H]1OC(=O)C(OP(=O)(O)O)=C1O [L-Ascorbic acid 2-phosphate-6-oleate] | 0.0055 Pmole/cell |  | 29.4 | 2.8
5 | CCCCCCCCCCCCCCCC(=O)OC[C@H](O)[C@H]1OC(=O)C(OP(=O)(O)O)=C1O [L-Ascorbic acid 2-phosphate-6-palmitate] | 0.0072 Pmole/cell |  | 34.2 | 2.4

Further lines, with some results ahead:

Row | Intracellular Cumulative Amount [1] | Intracellular Cumulative Amount [3] | Compound | Number of Metastasis Colonies (average), Peroral Administration [2] | Number of Metastasis Colonies (average), Subcutaneous Injection [2]
6 | 0.0034 Pmole/cell |  | CCCCCCCCCCCCCCCCCC(=O)OC[C@H](O)[C@H]1OC(=O)C(OP(=O)(O)O)=C1O [L-Ascorbic acid 2-phosphate-6-stearate] | 14.2 | 8.2
7 | 0.0012 Pmole/cell |  | O=C1O[C@H]([C@@H]2COC(c3ccccc3)O2)C(O)=C1O (stereo partly drawn) [L-Ascorbic acid-5,6-O-benzylidene] | 85.8 | 84.2
8 | 0.0007 Pmole/cell |  | O=C1OC(C2COC(c3cccc([N+](=O)[O-])c3)O2)C([O-])=C1O.[Na+] [Sodium 5,6-(3-nitro)benzylidene-L-ascorbate] | 88.6 | 84.2
9 | 0.0070 Pmole/cell | 0.0033 Pmole/cell | Magnesium L-ascorbic acid 2-phosphate-6-laurate |  | 
10 | 0.0068 Pmole/cell | 0.0040 Pmole/cell | Sodium L-ascorbic acid 2-phosphate-6-palmitate | 30.6 | 1.6

Reference: patent US20020010210A1, “PHARMACEUTICAL PREPARATION AND METHOD FOR TREATING CANCER” (priority 1997, published 2002)
